Source: patent US5238938A, “Indole derivatives” (Otsuka Pharmaceutical Co., Ltd., priority 1989, dated 1993)

System: releasing of lysosome from the neutrocytes of rat
Assay: Inhibitory effect against the releasing of lysosome from the neutrocytes of rat
Assay type: cell-based
Details: 0.25 h; rat neutrocytes 5×10^5 cells/ml; FMLP 10^-6 M + cytochalasin B 5 μg/ml; 15 minutes; OD550; read-out: 50% inhibitory concentration (IC50), releasing of lysosome
Description: Inhibitory effect against the releasing of lysosome from the neutrocytes of rat
The neutrocytes of rat were samples from the abdominal cavity of the reat 16 hours after the administration of 10 ml of 1%-casein solution (physiological saline solution).
Reaction of the releasing of lysosome from the neutrocytes of rat was determined by means of the method described in an article by T. Matsumoto, K. Takeshige and S. Minakami: Biochemical and Biophysical Research Communications, Vol. 88, No. 3, pp. 974-979, (1979).
The neutrocytes being sampled were added to Hank's soluiton so as to make the concentraiton thereof as 5×10^5 cells/ml, and the test compound of indole derivative of the present invention was added thereto to make the test group sample. On the other hand, water was added in place of the indole derivative of the present invention to make the control group sample. Each of the test group sample and the control group sample was subjected to pre-incubation at 37° C. for 1 minute.
As to the stimulating agents, 10^-6 M of FMLP (formylmethionyl leucyl phenylalanine) and 5 μg/ml of cytochalasin B were added to the solution. Thus, obtained mixture of the solution was reacted by incubating for 15 minutes. After the incubation, the mixture of the solution was subjected to centrifugation at 2,000 rpm for 10 minutes. The supernatant (0.2 ml) was admixed with 0.5 ml of 0.1M-acetic acid buffer solution (pH 4.5) in which 0.2 mM of phenolphthalein glucuronic acid was dissolved. Then the resulting mixture of the solutions was reacted at 37° C. for 5 hours by incubation. After the reaction, 1N-NaOH solution was added to the reaction mixture so as to make the pH thereof to pH 8-9, and the optical absorbance of both test group samples and control group samples were determined at 550 nm (OD550).
The 50% inhibitory concentration (IC50) values were obtained by calculating as the ratio of OD550 of the test group samples to that of the control group samples.

Going from `COn1c(CC(C)C)c(Cl)nc(Cc2c[nH]c3ccccc23)c1=O` [Compound A-45, 5-chloro-3-(indol-3-yl)methyl-6-isobutyl-1-methoxy-1,2-dihydropyrazin-2-one] to `COn1c(C)c(C)nc(Cc2c[nH]c3ccccc23)c1=O` [Compound A-53, 3-(Indol-3-yl)methyl-1-methoxy-5,6-dimethyl-1,2-dihydropyrazin-2-one], the IC50 rises from 20 µg/mL to 43 µg/mL (2.1-fold).

Compared with `COc1nc(CC(C)C)c(OC)nc1Cc1c[nH]c2ccccc12` [Compound A-19, 3-(Indol-3-yl)methyl-6-isobutyl-2,5-dimethoxypyrazine], `CCOc1nc(CC(C)C)c(OCC)nc1Cc1c[nH]c2ccccc12` [Compound A-23, 3-(Indol-3-yl)methyl-2,5-diethoxy-6-isobutylpyrazine] is 2-fold higher in IC50: 25 µg/mL for the first, 50 µg/mL for the second.

`O=C1CN(O)C(=O)[C@H](Cc2c[nH]c3ccccc23)N1` [Compound A-29c, (3S)-1-Hydroxy-3-(indol-3-yl)methylpiperazine-2,5-dione] and `CC(C)C[C@H]1C(=O)N[C@@H](Cc2c[nH]c3ccccc23)C(=O)N1OCc1ccccc1` [Compound A-35d, (3S,6S)-1-Benzyloxy-3-(indol-3-yl)methyl-6-isobutyl-piperazine-2,5-dione] are the same in IC50: 50 µg/mL for the first, 50 µg/mL for the second.

Compared with `CC(C)Cc1cnc(Cc2c[nH]c3ccccc23)cn1` [Compound A-27, 2-(indol-3-yl)methyl-5-isobutylpyrazine], `CC(C)Cc1nc(Cl)c(Cc2c[nH]c3ccccc23)nc1Cl` [Compound A-26, 3-(Indol-3-yl)methyl-2,5-dichloro-6-isobutylpyrazine] is 2.5-fold lower in IC50: 25 µg/mL for the first, 10 µg/mL for the second.

`COC1=N[C@@H](CC(C)C)C(=O)N(C)/C1=C\c1c[nH]c2ccccc12` [Compound A-5b, (3S,Z)-6-(Indol-3-yl)methylidene-3-isobutyl-5-methoxy-1-methyl-1,2,3,6-tetrahydropyrazin-2-one] and `CC(C)C[C@@H]1NC(=O)/C(=C/c2c[nH]c3ccccc23)N(C)C1=O` [Compound A-4b, (3S,Z)-6-(Indol-3-yl)methylidene-3-isobutyl-1-methylpiperazine-2,5-dione] are within 1.5-fold of each other in IC50: 25 µg/mL for the first, 30 µg/mL for the second.

`COc1nc(-c2ccccc2)c(=O)n(C)c1Cc1c[nH]c2ccccc12` [Compound A-6a, 6-(indol-3-yl)methyl-5-methoxy-1-methyl-3-phenyl-1,2-dihydropyrazin-2-one] and `COc1nc(CC(C)C)c(=O)n(C)c1Cc1c[nH]c2ccccc12` [Compound A-6b, 6-(Indol-3-yl)methyl-3-isobutyl-5-methoxy-1-methyl-1,2-dihydropyrazin-2-one] are the same in IC50: 30 µg/mL for the first, 30 µg/mL for the second.

First: COc1c(Cc2c[nH]c3ccccc23)nc(OC(C)=O)c(CC(C)C)[n+]1[O-] [Compound E-65, 3-Acetoxy-5-(indol-3-yl)methyl-2-isobutyl-6-methoxypyrazine 1-oxide]
Second: COc1nc(Cc2c[nH]c3ccccc23)c(OC)[n+]([O-])c1CC(C)C [Compound A-60, 3-(indol-3-yl)methyl-6-isobutyl-2,5-dimethoxypyrazine 1-oxide]
The IC50 of the first is 2.2-fold lower: 9 µg/mL for the first, 20 µg/mL for the second.

First: COc1c(Cn2ccc3cc(C#N)ccc32)[nH]c(=O)c(CC(C)C)[n+]1[O-] [Compound E-36o, 6-[(5-cyano)indol-1-yl]methyl-3-isobutyl-5-methoxy-1,2-dihydropyrazin-2-one4-oxide]
Second: COc1c(CC2C(=O)Nc3ccccc32)[nH]c(=O)c(CC(C)C)[n+]1[O-] (centres unmarked) [Compound E-39, 2-Isobutyl-5-methxoy-6-(oxindol-3-yl)methyl-1,2-dihydropyrazin-2-one 4-oxide]
The IC50 of the first is 4.2-fold lower: 12 µg/mL for the first, 50 µg/mL for the second.

First: COc1c(Cc2c(-c3ccccc3)[nH]c3ccccc23)[nH]c(=O)c(CC(C)C)[n+]1[O-] [Compound E-34g, 3-Isobutyl-5-methoxy-6-[(2-phenyl)indol-3-yl]methyl-1,2-dihydropyrazin-2-one 4-oxide]
Second: COc1c(Cc2c[nH]c3ccccc23)n(C)c(=O)c(CC(C)C)[n+]1[O-] [Compound A-59, 6-(indol-3-yl)methyl-3-isobutyl-5-methoxy-1-methyl-1,2-dihydropyrazin-2-one 4-oxide]
The IC50 of the first is 2.5-fold lower: 8 µg/mL for the first, 20 µg/mL for the second.

`CN1C(=O)C(c2ccccc2)NC(=O)/C1=C/c1c[nH]c2ccccc12` (centres unmarked) [Compound A-4a, (Z)-6-(indol-3-yl)methylidene-1-methyl-3-phenylpiperazine-2,5-dione] and `CC(C)/C=c1\[nH]c(=O)/c(=C/c2c[nH]c3ccccc23)[nH]c1=O` [Compound A-34, (Z,Z)-3-(indol-3-yl)methylidene-6-isobutylidenepiperazine-2,5-dione] are within 1.5-fold of each other in IC50: 35 µg/mL for the first, 50 µg/mL for the second.

`CC(C)Cc1c(=O)[nH]c(Cc2c[nH]c3ccccc23)c[n+]1[O-]` [Compound A-84, 6-(indol-3-yl)methyl-3-isobutyl-1,2-dihydropyrazin-2-one 4-oxide] and `COC(=O)n1cc(Cc2nc(Cl)c(CC(C)C)[n+]([O-])c2OC)c2ccccc21` [Compound A-48, 3-Chloro-2-isobutyl-5-[(1-methoxycarbonyl)indol-3-yl]methyl-6-methoxypyrazineyl-oxide] are the same in IC50: 50 µg/mL for the first, 50 µg/mL for the second.

Same assay, conditions: rat neutrocytes 5×10^5 cells/ml; FMLP 10^-6 M + cytochalasin B 5 μg/ml; 15 minutes; OD550

For “6-(indol-3-yl)methyl-2-isobutyl-5-methyl-1,2-dihydropyrazin-3-one 4-oxide [Compound A-82a]”, the “50% inhibitory concentration (IC50), releasing of lysosome” value was 20 µg/mL.
